Measured values from patent publication US20090209578A1, “CHEMICAL COMPOUNDS” (PFIZER INC, priority 2005, published 2009).
Like-named read-outs stand apart in the source and are kept apart here.

Molecular target: HIV-1 fusion (gp160 induced cell-cell fusion; HeLa P4 cell line expressing CCR5 and CD4 / CHO-Tat10 cell line) (Homo sapiens, UniProt P51681)
Experiment: gp160 induced cell-cell fusion assay
Type: cell-based
Conditions: HeLa P4 / CHO-Tat10 cells
Text: Biol., 60, 147-52 (1996); and/or by using the intracellular calcium mobilisation assays as described by the same authors, and/or inhibiting cell fusion following procedures disclosed in Bradley et al., J Biomol Screen 9, 516-24 (2004).
The gp160 induced cell-cell fusion assay uses a HeLa P4 cell line and a CHO-Tat10 cell line.
The HeLa P4 cell line expresses CCR5 and CD4 and has been transfected with HIV-1 LTR-β-Galactosidase. The media for this cell line is Dulbecco modified eagle's medium (D-MEM) (without L-glutamine) containing 10% foetal calf serum (FCS), 2 mM L-glutamine, penicillin/streptomycin (Pen/Strep; 100 U/mL penicillin+[…] streptomycin), and 1 μg/ml puromycin.
The CHO cell line is a Tat (transcriptional trans activator)-expressing clone from a CHO JRR17.1 cell line that has been transfected with pTat puro plasmid. The media for this cell line is rich medium for mammalian cell culture originally developed at Roswell Park Memorial Institute RPMI1640 (without L-glutamine) containing 10% FCS, 2 mM L-glutamine, 0.5 mg/ml Hygromycin B and 12 µg/ml puromycin. The CHO JRR17.1 line expresses gp160 (JRFL) and is a clone that has been selected for its ability to fuse with a CCR5/CD4 expressing cell line.
Upon cell fusion, Tat present in the CHO cell is able to transactivate the HIV-1 long terminal repeat (LTR) present in the HeLa cell leading to the expression of the β-Galactosidase enzyme. This expression is then measured using a Fluor Ace™ β-Galactosidase reporter assay kit (Bio-Rad cat no. 170-3150). This kit is a quantitative fluorescent assay that determines the level of expression of β-galactosidase using 4-methylumbelliferyl-galactopyranoside (MUG) as substrate. β-Galactosidase hydrolyses the fluorogenic substrate resulting in release of the fluorescent molecule 4-methylumbelliferone (4MU). Fluorescence of 4-methylumbelliferone is then measured on a fluorometer using an excitation wavelength of 360 nm and emission wavelength of 460 nm.
Compounds that inhibit fusion will give rise to a reduced signal and, following solubilisation in an appropriate solvent and dilution in culture medium, a dose-response curve for each compound can be used to calculate IC50 values.

Chain of HIV-1 fusion (gp160 induced cell-cell fusion; HeLa P4 cell line expressing CCR5 and CD4 / CHO-Tat10 cell line) (P51681 whole entry, the tested form may be a part): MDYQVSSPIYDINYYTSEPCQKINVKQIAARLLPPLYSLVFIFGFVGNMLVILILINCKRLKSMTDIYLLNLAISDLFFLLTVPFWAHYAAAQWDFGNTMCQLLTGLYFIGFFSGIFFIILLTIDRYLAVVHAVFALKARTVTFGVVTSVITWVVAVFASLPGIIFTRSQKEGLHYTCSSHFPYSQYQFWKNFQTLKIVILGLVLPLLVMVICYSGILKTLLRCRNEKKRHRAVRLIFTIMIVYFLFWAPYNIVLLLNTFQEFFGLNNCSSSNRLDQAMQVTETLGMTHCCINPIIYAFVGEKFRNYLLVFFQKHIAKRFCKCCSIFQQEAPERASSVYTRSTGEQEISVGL

COC(=O)N1CCc2nc(C)n(C3CCN(C(C)C[C@H](NC(=O)OC(C)(C)C)c4ccccc4)CC3)c2C1 (single isomer, unassigned) [Example 3]
IC50 (read-out: IC50): 434 nM

COC(=O)N1CCc2nc(C)n(C3CCN(C(C)CC(NC(=O)C4CC4)c4ccccc4)CC3)c2C1 (mixture of isomers) [Example 12]
IC50 (read-out: IC50): 0.6 nM

CC(C[C@H](NC(=O)C1CCC(F)(F)CC1)c1ccccc1)N1CCC(c2nnnn2C(C)C)CC1 (single isomer, unassigned) [Example 126]
IC50 (read-out: IC50): 21.8 nM

Cc1noc(C2CCN(C(C)C[C@H](NC(=O)C3CCC(F)(F)CC3)c3ccccc3)CC2)n1 (single isomer, unassigned) [Example 109]
IC50 (read-out: IC50): 4.6 nM

Cc1nc(C2CCN(C(C)CC(NC(=O)C3CCC(F)(F)CC3)c3ccccc3)CC2)no1 (mixture of isomers) [Example 128]
IC50 (read-out: IC50): 26 nM

COC(=O)N1CCc2nc(C)n(C3CCN(C(C)C[C@H](NC(=O)OC(C)(C)C)c4ccccc4)CC3)c2C1 (single isomer, unassigned) [Example 2]
IC50 (read-out: IC50): 14 nM

Cc1nc2c(n1C1CCN(C(C)C[C@H](NC(=O)C3CCC3)c3ccccc3)CC1)CN(C(=O)C(C)C)CC2 (single isomer, unassigned) [Example 30]
IC50 (read-out: IC50): 11 nM

CC(=O)N1CCc2nc(C)n(C3CCN(C(C)C[C@H](NC(=O)OC(C)C)c4ccccc4)CC3)c2C1 (some centres unmarked) [Example 63]
IC50 (read-out: IC50): 1.8 nM

CCc1noc(C2CCN(C(C)CC(NC(=O)C3CCC(F)(F)CC3)c3ccccc3)CC2)n1 (mixture of isomers) [Example 129]
IC50 (read-out: IC50): 8.6 nM

CC(C)Cc1nnc(C2CCN(C(C)CC(NC(=O)C3CCC(F)(F)CC3)c3ccccc3)CC2)o1 (mixture of isomers) [Example 130]
IC50 (read-out: IC50): 5.9 nM

COC(=O)N1CCc2nc(C)n(C3CCN(C(C)CC(NC(=O)CC4CC4)c4ccccc4)CC3)c2C1 (mixture of isomers) [Example 7]
IC50 (read-out: IC50): 0.9 nM

COC(=O)N[C@@H](CC(C)N1CCC(n2c(C)nc3c2CN(C(C)=O)CC3)CC1)c1cccc(F)c1 (some centres unmarked) [Example 59]
IC50 (read-out: IC50): 13 nM

CC(=O)N1CCc2nc(C)n(C3CCN(C(C)C[C@H](NC(=O)C4(C)CC4)c4cccc(F)c4)CC3)c2C1 (some centres unmarked) [Example 48]
IC50 (read-out: IC50): 0.8 nM

COC(=O)N[C@@H](CC(C)N1CCC(n2c(C)nc3c2CN(C(=O)OC)CC3)CC1)c1ccccc1 (single isomer, unassigned) [Example 13B]
IC50 (read-out: IC50): 600 nM

CC(=O)N1CCc2c(nc(C)n2C2CCN(C(C)C[C@H](NC(=O)C3CC3)c3cccc(F)c3)CC2)C1 (single isomer, unassigned) [Example 101]
IC50 (read-out: IC50): 18.8 nM

Cc1nc2c(n1C1CCN(C(C)C[C@H](NC(=O)C3CCC3)c3ccccc3)CC1)CN(C(=O)C(C)C)CC2 (single isomer, unassigned) [Example 24]
IC50 (read-out: IC50): 0.2 nM

CCCC(=O)N[C@@H](CC(C)N1CCC(n2c(C)nc3c2CN(C(C)=O)CC3)CC1)c1cccc(F)c1 (single isomer, unassigned) [Example 47]
IC50 (read-out: IC50): 0.7 nM

COC(=O)N1CCc2c(nc(C)n2C2CCN(C(C)CC(NC(C)=O)c3cccc(F)c3)CC2)C1 (mixture of isomers) [Example 76]
IC50 (read-out: IC50): 5.5 nM

Cc1nc2c(n1C1CCN(C(C)C[C@H](NC(=O)C3(C)CC3)c3ccccc3)CC1)CN(C(=O)C(C)C)CC2 (some centres unmarked) [Example 27]
IC50 (read-out: IC50): 115 nM

CC(=O)N1CCc2nc(C)n(C3CCN(C(C)C[C@H](NC(=O)C4CCOCC4)c4cccc(F)c4)CC3)c2C1 (some centres unmarked) [Example 52]
IC50 (read-out: IC50): 1 nM

CCOC(=O)N1CCc2c(nc(C)n2C2CCN(C(C)C[C@H](NC(=O)C(C)C)c3cccc(F)c3)CC2)C1 (single isomer, unassigned) [Example 95]
IC50 (read-out: IC50): 5.5 nM

Cc1nc2c(n1C1CCN(C(C)C[C@H](NC(=O)C3(C)CC3)c3ccccc3)CC1)CN(C(=O)C(C)C)CC2 (some centres unmarked) [Example 22]
IC50 (read-out: IC50): 0.5 nM

CCC(=O)N[C@@H](CC(C)N1CCC(n2c(C)nc3c2CCN(C(C)=O)C3)CC1)c1cccc(F)c1 (single isomer, unassigned) [Example 102]
IC50 (read-out: IC50): 25.9 nM

CC(=O)N1CCc2nc(C)n(C3CCN(C(C)C[C@H](NC(=O)C4CCC(F)(F)CC4)c4cccc(F)c4)CC3)c2C1 (single isomer, unassigned) [Example 51]
IC50 (read-out: IC50): 0.3 nM

CC(C)c1nc(C2CCN(C(C)CC(NC(=O)C3CCC(F)(F)CC3)c3ccccc3)CC2)no1 (mixture of isomers) [Example 131]
IC50 (read-out: IC50): 20.2 nM

COC(=O)N1CCc2c(nc(C)n2C2CCN(C(C)C[C@H](NC(=O)C3CC(F)(F)C3)c3cccc(F)c3)CC2)C1 (stereo partly drawn) [Example 80, Methyl 1-{1-[(3S)-3-{[(3,3-difluorocyclobutyl)carbonyl]amino}-3-(3-fluorophenyl)-1-methylpropyl]piperidin-4-yl}-2-methyl-1,4,6,7-tetrahydro-5H-imidazo[4,5-c]pyridine-5-carboxylate]
IC50 (read-out: IC50): 0.2 nM

COC(=O)N1CCc2nc(C)n(C3CCN(C(C)CC(NC(=O)C4CCC4)c4ccccc4)CC3)c2C1 (mixture of isomers) [Example 10]
IC50 (read-out: IC50): 0.3 nM

COC(=O)N1CCc2nc(C)n(C3CCN(C(C)CC(NC(=O)C(C)C)c4ccccc4)CC3)c2C1 (mixture of isomers) [Example 11]
IC50 (read-out: IC50): 0.6 nM

CC(C)c1noc(C2CCN(C(C)C[C@H](NC(=O)C3CCC3)c3ccccc3)CC2)n1 (stereo partly drawn) [Example 105, N-{(1S)-3-[4-(3-isoPropyl-1,2,4-oxadiazol-5-yl)piperidin-1-yl]-1-phenylbutyl}cyclobutanecarboxamide]
IC50 (read-out: IC50): 94.6 nM

CCC(=O)N[C@@H](CC(C)N1CCC(n2c(C)nc3c2CCN(C(C)=O)C3)CC1)c1cccc(F)c1 (stereo partly drawn) [Example 104, N-[(1S)-3-[4-(5-acetyl-2-methyl-4,5,6,7-tetrahydro-1H-imidazo[4,5-c]pyridin-1-yl)piperidin-1-yl]-1-(3-fluorophenyl)butyl]propanamide]
IC50 (IC50 (nM)): 0.8 nM

CC(=O)N1CCc2nc(C)n(C3CCN(C(C)C[C@H](NC(=O)C4CCC4(F)F)c4cccc(F)c4)CC3)c2C1 (some centres unmarked) [Example 49]
IC50 (read-out: IC50): 0.4 nM

Cc1nc2c(n1C1CCN(C(C)C[C@H](NC(=O)CC(C)C)c3ccccc3)CC1)CN(C(=O)C(C)C)CC2 (single isomer, unassigned) [Example 28]
IC50 (read-out: IC50): 79.2 nM

CC(C)c1nnnn1C1CCN(C(C)C[C@H](NC(=O)C2CCC(F)(F)CC2)c2ccccc2)CC1 (single isomer, unassigned) [Example 121]
IC50 (read-out: IC50): 0.5 nM

CCOC(=O)N1CCc2nc(C)n(C3CCN(C(C)C[C@H](NC(C)=O)c4cccc(F)c4)CC3)c2C1 (stereo partly drawn) [Example 66, Ethyl 3-{1-[(3S)-3-(acetylamino)-3-(3-fluorophenyl)-1-methylpropyl]piperidin-4-yl}-2-methyl-3,4,6,7-tetrahydro-5H-imidazo[4,5-c]pyridine-5-carboxylate]
IC50 (read-out: IC50): 3.5 nM

COC(=O)N1CCc2nc(C)n(C3CCN(C(C)C[C@H](NC(=O)C4CCC4(F)F)c4ccccc4)CC3)c2C1 (some centres unmarked) [Example 5]
IC50 (read-out: IC50): 0.7 nM
